From patent US20130303557A1, “PHARMACEUTICAL COMPOSITIONS AND METHODS OF TREATING DRY EYE DISORDERS” (PFIZER INC., priority 2010, published 2013)

What was measured:
Format in all cases: in vivo
[1] = system: dry-induced C57 mice; assay: Induced dry eye mouse model (scopolamine plus fans), tear production; conditions: at 2 days of treatment; 1 μl once a day, Formulations 3 and 5; FIGS. 7 and 8
Description: An injection was prepared comprising 2.5 mg/ml scopolamine (sigma) in injectable saline (1-1.5 ml per animal). In normal C57 mice (200-250) ul of scopolamine was injected four times every 2.5 hrs in alternating hind quarters. The mice were placed in special cages (with holes in front and back) and placed in a hood. Fans were placed in front of each cage, and turned on for 16 hours over night for five days. Measurements were taken daily.
As with Examples 4 and 5 above, animals were treated with drug or vehicle at 1 μl, once a day for 2 weeks.

[2] = system: MRL/Ipr dry eye mice; assay: Dose response of CP690550 on tear production in MRL/Ipr mice (Formulations 1, 3 and 4); conditions: at 2 days after treatment, all comparisons, FIGS. 4-6
Description: As with Example 4 above, vehicle-treated normal C57black/6 and MRL/Ipr dry eye mice (5-10 mice/group) were used as normal control and dry eye control, respectively. […] Treatment for Formulation 1 was carried for two weeks, at […], twice a day.

[3] = system: MRL/Ipr dry eye mice; assay: Comparative tear production, CP-690550 versus Restasis, in MRL/Ipr dry eye mice (phenol red thread); conditions: CP-690550 0.01% vs Restasis (cyclosporine 0.05%), 2 μl twice a day for 30 days; FIG. 3
Description: Tear measurement was done using phenol red impregnated thread (Quick Zone®) and baseline measurement was performed before each drug application. Drugs or vehicles were applied at 2 μl, two times a day.
Vehicle-treated normal C57black/6 and MRL/Ipr dry eye mice were used as normal control and dry eye control, respectively.
Control animals included normal C57Black/6 mice, and MRL/Ipr mice, treated with PBS vehicle and MRL/Ipr mice treated with Refresh Endura® (vehicle for Restasis) (5-10 mice/group).

In the case of `C[C@@H]1CCN(C(=O)CC#N)C[C@@H]1N(C)c1ncnc2[nH]ccc12` [CP690550, 3-{(3R,4R)-4-Methyl-3-[methyl-(7H-pyrrolo[2,3-d]pyrimidin-4-yl)-amino]-piperidin-1-yl}-3-oxo-propionitrile], the “increase in tear production” value [1] is reported as “significant increase in tear production”, the “improvement in tear production” value [2] is reported as “significant improvement in tear production” and the “response rate as compared to Restasis” value [3] is reported as “much faster response rate as compared to Restasis®”. The “volume of tear production compared with Restasis” value [3] was “significant improvement in the volume of tear production over Restasis®”.
